Source: US20250108038A1 (priority 2023, published 2025)
Where “and” joins values, the source holds several entries; their conditions need not be identical. Equal entries are not always repeated. Entries after “also recorded” stand apart in the source; their conditions may differ. Structures can show the parent of a compound that is named as a salt.

Assays:
OAT3 = target: T1, OAT3 (Homo sapiens, UniProt Q8TCC7); test: Uptake transporter inhibition assay, OAT3 (estrone-3-sulfate); details: for Maximum % inhibition: OAT3, HEK293 cells, E3S (1 μM), NIO: no inhibition observed
T1 sequence (Q8TCC7 1-542): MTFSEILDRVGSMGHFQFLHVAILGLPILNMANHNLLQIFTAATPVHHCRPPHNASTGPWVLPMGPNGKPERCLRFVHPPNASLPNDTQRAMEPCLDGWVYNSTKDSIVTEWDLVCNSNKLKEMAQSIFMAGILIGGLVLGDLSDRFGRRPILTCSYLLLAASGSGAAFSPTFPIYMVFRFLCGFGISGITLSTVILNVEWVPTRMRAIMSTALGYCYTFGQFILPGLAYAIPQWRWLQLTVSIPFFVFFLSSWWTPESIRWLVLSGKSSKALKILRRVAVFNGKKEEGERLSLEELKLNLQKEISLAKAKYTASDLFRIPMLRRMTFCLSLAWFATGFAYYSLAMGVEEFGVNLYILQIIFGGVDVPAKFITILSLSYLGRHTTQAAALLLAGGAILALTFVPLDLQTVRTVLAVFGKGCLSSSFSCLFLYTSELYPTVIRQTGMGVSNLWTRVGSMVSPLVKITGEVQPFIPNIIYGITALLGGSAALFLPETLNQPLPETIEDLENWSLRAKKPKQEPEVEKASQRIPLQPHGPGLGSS
Description: Uptake experiments were performed using HEK293 cells stably expressing the respective uptake transporters. The assays were conducted according to the actual SOLVO uptake transporter assay protocols (PR-ASY-UPT-General Protocol for Uptake Transporter Inhibition Assays).
Cells were cultured at 37° C. in a humidified atmosphere containing 5% CO2 and were plated onto standard 96-well tissue culture plates.
Before the experiment, the medium was removed, and the cells were washed twice with 100 μL of pre-warmed (37° C.) assay buffer listed in Table 15. The cells were pre-incubated at 37° C. for 30 minutes in assay buffer containing the test article at appropriate concentrations (Table 16), appropriate solvents for solvent controls and the reference inhibitor for reference inhibitor wells. After the pre-incubation step solutions were removed. Uptake experiments were performed at 37° C. in 50 μL of assay buffer containing the probe substrate and the test article or solvent and controls.
After the experiment, cells were washed twice with 100 μL of appropriate cold buffer and lysed with 150 μL scintillation cocktail. Radiolabeled probe substrate transport was determined by liquid scintillation counting.
Uptake of the probe substrate in control cells provided background activity values for all data points.

Long Evans rats = test: Time-restricted (deprivation-induced) feeding, food intake; format: in vivo, Long Evans rat; details: for Food Consumption, AVG / Food Consumption: 2 h feeding; for Food Consumption, AVG: average of 12 animals; for Food Consumption: individual animals LT-1 to LT-12; for food intake (2 h feeding period): rat, in vivo
Description: Food consumption was limited to 2 h/day and so was motivated by hunger caused by 22 h food deprivation. Water was freely available 24 h/day.
Specifically, 12 male Long-Evans rats were food-deprived for 22 h with a 2 h feeding period each day. Rats were trained to consume daily food during the 2 h period over 25 days. The testing phase was initiated once the rats consistently consumed 16-18 g of food per day with ≤10% variance in amount of feed consumed. Feeding took place in designated individual boxes in a quiet room separate from the housing room. Continuous remote monitoring via video camera during feeding was used to assess the BSS. Food consumption was measured by weighing the total available food before and after the 2 h feeding window, correcting for spillage. Lorcaserin (1 mg/kg) was included as a reference control (Higgins et al, 2011, Neuropsychopharmacology. 37(5): 1177-1191). Subjects were tested using a repeated-measures, Latin square design with 2-3 days wash-out between treatment cycles.
Drug was administered at a volume of 1 mL/kg, intraperitoneal (IP). […]: 0.1, 0.3, 1, 3 mg/kg. There was a pretreatment time of 30 minutes.
Drug was administered at a volume of 1 mL/kg, subcutaneous (SC) route. One dose was tested: 1 mg/kg (expressed as base). There was a pretreatment time of 10 minutes.
Following a five day period of familiarization to the test facility, animals were placed on a restricted diet regimen, in which they were allotted approximately 40 g of standard laboratory chow once per day (between 10:00 h and 14:00 h). Rats were trained to consume the daily food (approximately 16-18 g of feed consumed) over a 2 h period. Daily food intakes were stable by study Day 25, with the quantity of feed consumed varying by ≤10% per day. Water was available ad-libitum. Subjects were pair-housed for the duration of the study and were maintained on a 12 h/12 h light/dark cycle with all testing conducted during the animals' light cycle. All animal use procedures were performed in accordance with the principles of the Canadian Council on Animal Care (CCAC).
Feed was measured using a certified scale according to standard operating procedures prior to testing. Residual feed was weighed following completion of the 2 h feeding window to track total intake (g).
Compound I-19 and Lorcaserin were prepared fresh on each test day. Test article was suspended in 0.8% DMSO, 6% PEG400, and 93.2% HβCD (6% in H2O) and sonicated until fully dissolved. […] Pretreatment time (ptt) was 30 minutes prior to commencement of testing. Lorcaserin was dissolved in 0.9% saline and administered via the subcutaneous route with a dose volume of 1 mL/kg with a ppt of 10 minutes.
The primary measure from the BSS test was total measured food intake (g), expressed as mean+SEM. Data were analysed by repeated-measures ANOVA (with treatment as a factor) (Statistica Version 11, Statsoft Inc. [2012]). Planned post-hoc comparisons were made in the event of a significant main effect using Dunnett's test. Significance was set at P<0.05.

[1] = 10.00 μM nominal, 6.60 μM NSB corrected
[2] = 100.00 μM nominal, 77.00 μM NSB corrected

## OC1(c2ccc(Cl)cc2)c2ccccc2C2=NCCN21 (stereo not drawn) [Compound A, 5-(4-chlorophenyl)-2,3-dihydroimidazo[1,2-b]isoindol-5-ol, reference compound]
OAT3; 3.00 μM nominal
  Relative transporter specific accumulation: 97.60 ± 4.33 % of control
  Transporter specific accumulation: 3,883.00 ± 158.50 cpm
OAT3; 30.00 μM nominal
  Relative transporter specific accumulation: 89.65 ± 3.21 % of control
  Transporter specific accumulation: 3,566.67 ± 111.53 cpm
OAT3
  Maximum % inhibition: NIO
OAT3; human, Relative inhibition, 3.00 μM nominal
  inhibition at 3 μM: 2%
OAT3; human, Relative inhibition, 30.00 μM nominal
  inhibition at 30 μM: 10%
OAT3; up to 100 μM (Compound A up to 30 μM)
  maximum inhibition of OAT3-mediated E3S accumulation: did not inhibit; also recorded: not an in vitro inhibitor

## Clc1ccc(C2(OCC3OCCO3)c3ccccc3C3=NCCN32)cc1 (stereo not drawn) [Compound I-19]
Long Evans rats; 0.1 mg/kg intraperitoneal
  Food Consumption, AVG: 17.8 grams
  Food Consumption: 22.2 grams and 13.4 grams and 17.8 grams and 18.2 grams and 19.4 grams (2×) and 20.7 grams and 18 grams and 15.7 grams and 14.5 grams and 14.1 grams and 19.7 grams
Long Evans rats; 0.3 mg/kg intraperitoneal
  Food Consumption, AVG: 17.2 grams
  Food Consumption: 22.1 grams and 15 grams and 18.8 grams and 15.4 grams and 19 grams and 18.2 grams and 18.1 grams and 15.8 grams and 17.8 grams and 14.9 grams and 14.5 grams and 16.5 grams
Long Evans rats; 1 mg/kg intraperitoneal
  Food Consumption, AVG: 15.8 grams
  Food Consumption: 18.7 grams and 13.2 grams and 17.8 grams and 15.8 grams and 19.3 grams and 17.7 grams and 13.4 grams and 14 grams and 14.9 grams (2×) and 13.8 grams and 16.3 grams
Long Evans rats; 3 mg/kg Compound I-19 IP
  decrease of food intake vs vehicle: 10.6%
Long Evans rats; 3 mg/kg intraperitoneal
  Food Consumption, AVG: 15.9 grams
  Food Consumption: 19 grams and 14.1 grams and 18.3 grams and 14 grams and 17.7 grams and 16.6 grams and 16.3 grams and 14.8 grams and 15.5 grams and 15 grams and 13.1 grams and 16.8 grams
Long Evans rats; acute, 0.1, 0.3, 1, 3 mg/kg IP
  effect on food intake: significantly decreased food intake at 1 and 3 mg/kg
Long Evans rats
  food intake (2 h feeding period): 15.9 ± 0.5 g
OAT3; [1]
  Relative inhibition: 5%
  Relative transporter specific accumulation: 95.18 ± 1.71 % of control
  Transporter specific accumulation: 10,323.00 ± 126.84 cpm
OAT3; [2]
  Relative inhibition: 42%
  Relative transporter specific accumulation: 57.83 ± 0.99 % of control
  Transporter specific accumulation: 6,272.33 ± 68.97 cpm
OAT3
  Maximum % inhibition: 42%

## C[C@H]1CNCCc2ccc(Cl)cc21 [lorcaserin, Lorcaserin hydrochloride, reference compound]
Long Evans rats; Lorcaserin 1 mg/kg subcutaneous
  Food Consumption, AVG: 14.6 grams
Long Evans rats; Lorcaserin 1 mg/kg subcutaneous, hydrochloride
  Food Consumption: 17.9 grams and 12.7 grams (2×) and 12.5 grams and 18 grams and 17.7 grams and 16.3 grams and 15.7 grams and 12.9 grams and 13.1 grams and 13.5 grams and 12 grams
Long Evans rats; lorcaserin 1 mg/kg SC
  decrease of food intake vs vehicle: 17.4%
Long Evans rats
  food intake (2 h feeding period): 14.6 ± 0.7 g
